From patent US10167262B2, “Herbicidal substituted 3-arylpyrazoles” (FMC CORPORATION, priority 2014, dated 2019)

Tests used:
Experiment in all cases: Test E pre-/postemergence greenhouse test, plant response rating 0-100
Assay type in all cases: in vivo
[1] = system: Brazilian crabgrass (Digitaria horizontalis); details: Postemergence, scale 0 to 100
Text: (§1) Seeds of plant species selected from corn (Zea mays), soybean (Glycine max), velvetleaf (Abutilon theophrasti), lambsquarters (Chenopodium album), wild poinsettia (Euphorbia heterophylla), palmer pigweed (Amaranthus palmeri), waterhemp (common waterhemp, Amaranthus rudis), surinam grass (Brachiaria decumbens), large (Lg) crabgrass (Digitaria sanguinalis), Brazilian crabgrass (Digitaria horizontalis), fall panicum (Panicum dichotomiflorum), giant foxtail (Setaria faberii), green foxtail (Setaria viridis), goosegrass (Eleusine indica), johnsongrass (Sorghum halepense), ragweed (common ragweed, Ambrosia elatior), barnyardgrass (Echinochloa crus-galli), sandbur (southern sandbur, Cenchrus echinatus), arrowleaf sida (Sida rhombifolia), Italian ryegrass (Lolium multiflorum), dayflower (Virginia (VA) dayflower, Commelina virginica), field bindweed (Convolvulus arvensis), morningglory (Ipomoea coccinea), nightshade (eastern black nightshade, Solanum ptycanthum), kochia (Kochia scoparia), yellow nutsedge (Cyperus esculentus), smartweed (ladysthumb smartweed, Polygonum persicaria), cocklebur (common cocklebur, Xanthium strumarium), and hairy beggarticks (Bidens pilosa), were planted into a silt loam soil and treated preemergence with test chemicals formulated in a non-phytotoxic solvent mixture which included a surfactant.
(§2) At the same time, plants from these crop and weed species and also waterhemp_RES1, (ALS & Triazine resistant common waterhemp, Amaranthus rudis), and waterhemp_RES2, (ALS & HPPD resistant common waterhemp, Amaranthus rudis) were planted in pots containing Redi-Earth® planting medium (Scotts Company, 14111 Scottslawn Road, Marysville, Ohio 43041) comprising spaghnum peat moss, vermiculite, wetting agent and starter nutrients were treated with postemergence applications of test chemicals formulated in the same manner. Plants ranged in height from 2 to 18 cm for postemergence treatments (1- to 4-leaf stage).
(§3) Treated plants and controls were maintained in a greenhouse for 14 to 21 days, after which time all species were compared to controls and visually evaluated. Plant response ratings, summarized in Table E, are based on a scale of 0 to 100 where 0 is no effect and 100 is complete control. A dash (-) response means no test result.

[2] = system: arrowleaf sida (Sida rhombifolia); details: Postemergence
Text: as §1, §2, §3

[3] = system: barnyardgrass (Echinochloa crus-galli); details: Postemergence, scale 0 to 100
Text: as §1, §2, §3

[4] = system: corn (Zea mays); details: Postemergence, scale 0 to 100
Text: as §1, §2, §3

[5] = system: dayflower (Virginia (VA) dayflower, Commelina virginica); details: Postemergence, scale 0 to 100
Text: as §1, §2, §3

[6] = system: fall panicum (Panicum dichotomiflorum); details: Postemergence, scale 0 to 100
Text: as §1, §2, §3

[7] = system: field bindweed (Convolvulus arvensis); details: Postemergence, scale 0 to 100
Text: as §1, §2, §3

[8] = system: palmer pigweed (Amaranthus palmeri); details: Postemergence, scale 0 to 100
Text: as §1, §2, §3

[9] = system: sandbur (southern sandbur, Cenchrus echinatus); details: Postemergence, scale 0 to 100
Text: as §1, §2, §3

[10] = system: soybean (Glycine max); details: Postemergence, scale 0 to 100
Text: as §1, §2, §3

[11] = system: waterhemp (common waterhemp, Amaranthus rudis); details: Postemergence, scale 0 to 100
Text: as §1, §2, §3

ON=C(c1ccccc1)c1c[nH]nc1-c1cc(Cl)cc(Cl)c1 [Compound 50]
Plant response rating, Crabgrass, Brazil ([1]; 31 g ai/ha): 0 | Plant response rating, Crabgrass, Brazil ([1]; 62 g ai/ha): 0 | Plant response rating, Crabgrass, Brazil ([1]; 125 g ai/ha): 0 | Plant response rating, Crabgrass, Brazil ([1]; 250 g ai/ha): 0 | Plant response rating, Crabgrass, Brazil ([1]; 500 g ai/ha): 0 | Plant response rating, Arrowleaf Sida ([2]; 31 g ai/ha, scale 0 to 100): 50 | Plant response rating, Arrowleaf Sida ([2]; 62 g ai/ha, scale 0 to 100): 50 | Plant response rating, Arrowleaf Sida ([2]; 125 g ai/ha, scale 0 to 100): 60 | Plant response rating, Arrowleaf Sida ([2]; 250 g ai/ha, scale 0 to 100): 70 | Plant response rating, Arrowleaf Sida ([2]; 500 g ai/ha, scale 0 to 100 (0 no effect, 100 complete control)): 80 | Plant response rating, Barnyardgrass ([3]; 31 g ai/ha): 0 | Plant response rating, Barnyardgrass ([3]; 62 g ai/ha): 0 | Plant response rating, Barnyardgrass ([3]; 125 g ai/ha): 0 | Plant response rating, Barnyardgrass ([3]; 250 g ai/ha): 0 | Plant response rating, Barnyardgrass ([3]; 500 g ai/ha): 10 | Plant response rating, Corn ([4]; 31 g ai/ha): 0 | Plant response rating, Corn ([4]; 62 g ai/ha): 0 | Plant response rating, Corn ([4]; 125 g ai/ha): 0 | Plant response rating, Corn ([4]; 250 g ai/ha): 0 | Plant response rating, Corn ([4]; 500 g ai/ha): 0 | Plant response rating, Dayflower, VA ([5]; 31 g ai/ha): 0 | Plant response rating, Dayflower, VA ([5]; 62 g ai/ha): 0 | Plant response rating, Dayflower, VA ([5]; 125 g ai/ha): 0 | Plant response rating, Dayflower, VA ([5]; 250 g ai/ha): 0 | Plant response rating, Dayflower, VA ([5]; 500 g ai/ha): 0 | Plant response rating, Panicum, Fall ([6]; 31 g ai/ha): 0 | Plant response rating, Panicum, Fall ([6]; 62 g ai/ha): 0 | Plant response rating, Panicum, Fall ([6]; 125 g ai/ha): 0 | Plant response rating, Panicum, Fall ([6]; 250 g ai/ha): 0 | Plant response rating, Panicum, Fall ([6]; 500 g ai/ha): 0 | Plant response rating, Field Bindweed ([7]; 31 g ai/ha): 0 | Plant response rating, Field Bindweed ([7]; 62 g ai/ha): 0 | Plant response rating, Field Bindweed ([7]; 125 g ai/ha): 0 | Plant response rating, Field Bindweed ([7]; 250 g ai/ha): 0 | Plant response rating, Field Bindweed ([7]; 500 g ai/ha): 5 | Plant response rating, Pigweed, Palmer ([8]; 31 g ai/ha): 65 | Plant response rating, Pigweed, Palmer ([8]; 62 g ai/ha): 75 | Plant response rating, Pigweed, Palmer ([8]; 125 g ai/ha): 80 | Plant response rating, Pigweed, Palmer ([8]; 250 g ai/ha): 98 | Plant response rating, Pigweed, Palmer ([8]; 500 g ai/ha): 98 | Plant response rating, Sandbur ([9]; 31 g ai/ha): 0 | Plant response rating, Sandbur ([9]; 62 g ai/ha): 0 | Plant response rating, Sandbur ([9]; 125 g ai/ha): 0 | Plant response rating, Sandbur ([9]; 250 g ai/ha): 0 | Plant response rating, Sandbur ([9]; 500 g ai/ha): 0 | Plant response rating, Soybean ([10]; 31 g ai/ha): 0 | Plant response rating, Soybean ([10]; 62 g ai/ha): 0 | Plant response rating, Soybean ([10]; 125 g ai/ha): 0 | Plant response rating, Soybean ([10]; 250 g ai/ha): 0 | Plant response rating, Soybean ([10]; 500 g ai/ha): 0 | Plant response rating, Waterhemp ([11]; 31 g ai/ha): 80 | Plant response rating, Waterhemp ([11]; 125 g ai/ha): 90 | Plant response rating, Waterhemp ([11]; 250 g ai/ha): 100 | Plant response rating, Waterhemp ([11]; 500 g ai/ha): 100

C=CCn1cc(C(=O)c2ccccc2)c(-c2cc(Cl)cc(Cl)c2)n1 [Compound 60]
Plant response rating, Crabgrass, Brazil ([1]; 16 g ai/ha): 0 | Plant response rating, Crabgrass, Brazil ([1]; 31 g ai/ha): 0 | Plant response rating, Crabgrass, Brazil ([1]; 62 g ai/ha): 0 | Plant response rating, Crabgrass, Brazil ([1]; 125 g ai/ha): 0 | Plant response rating, Crabgrass, Brazil ([1]; 250 g ai/ha): 0 | Plant response rating, Arrowleaf Sida ([2]; 16 g ai/ha, scale 0 to 100): 25 | Plant response rating, Arrowleaf Sida ([2]; 31 g ai/ha, scale 0 to 100): 35 | Plant response rating, Arrowleaf Sida ([2]; 62 g ai/ha, scale 0 to 100): 35 | Plant response rating, Arrowleaf Sida ([2]; 125 g ai/ha, scale 0 to 100): 45 | Plant response rating, Arrowleaf Sida ([2]; 250 g ai/ha, scale 0 to 100): 45 | Plant response rating, Barnyardgrass ([3]; 16 g ai/ha): 0 | Plant response rating, Barnyardgrass ([3]; 31 g ai/ha): 0 | Plant response rating, Barnyardgrass ([3]; 62 g ai/ha): 0 | Plant response rating, Barnyardgrass ([3]; 125 g ai/ha): 0 | Plant response rating, Barnyardgrass ([3]; 250 g ai/ha): 0 | Plant response rating, Corn ([4]; 16 g ai/ha): 0 | Plant response rating, Corn ([4]; 31 g ai/ha): 0 | Plant response rating, Corn ([4]; 62 g ai/ha): 0 | Plant response rating, Corn ([4]; 125 g ai/ha): 0 | Plant response rating, Corn ([4]; 250 g ai/ha): 0 | Plant response rating, Dayflower, VA ([5]; 16 g ai/ha): 0 | Plant response rating, Dayflower, VA ([5]; 31 g ai/ha): 0 | Plant response rating, Dayflower, VA ([5]; 62 g ai/ha): 0 | Plant response rating, Dayflower, VA ([5]; 125 g ai/ha): 0 | Plant response rating, Dayflower, VA ([5]; 250 g ai/ha): 0 | Plant response rating, Panicum, Fall ([6]; 31 g ai/ha): 0 | Plant response rating, Panicum, Fall ([6]; 62 g ai/ha): 0 | Plant response rating, Panicum, Fall ([6]; 125 g ai/ha): 0 | Plant response rating, Panicum, Fall ([6]; 250 g ai/ha): 0 | Plant response rating, Field Bindweed ([7]; 16 g ai/ha): 0 | Plant response rating, Field Bindweed ([7]; 31 g ai/ha): 0 | Plant response rating, Field Bindweed ([7]; 62 g ai/ha): 0 | Plant response rating, Field Bindweed ([7]; 125 g ai/ha): 0 | Plant response rating, Field Bindweed ([7]; 250 g ai/ha): 0 | Plant response rating, Pigweed, Palmer ([8]; 62 g ai/ha): 30 | Plant response rating, Pigweed, Palmer ([8]; 125 g ai/ha): 35 | Plant response rating, Pigweed, Palmer ([8]; 250 g ai/ha): 35 | Plant response rating, Sandbur ([9]; 31 g ai/ha): 0 | Plant response rating, Sandbur ([9]; 62 g ai/ha): 0 | Plant response rating, Sandbur ([9]; 125 g ai/ha): 0 | Plant response rating, Sandbur ([9]; 250 g ai/ha): 0 | Plant response rating, Soybean ([10]; 31 g ai/ha): 0 | Plant response rating, Soybean ([10]; 62 g ai/ha): 0 | Plant response rating, Soybean ([10]; 125 g ai/ha): 0 | Plant response rating, Soybean ([10]; 250 g ai/ha): 0 | Plant response rating, Waterhemp ([11]; 31 g ai/ha): 20 | Plant response rating, Waterhemp ([11]; 62 g ai/ha): 25 | Plant response rating, Waterhemp ([11]; 125 g ai/ha): 25 | Plant response rating, Waterhemp ([11]; 250 g ai/ha): 30
